The target in experiment [1] is T1, His-His-USP7 (aa208-560, |C315A|) (Homo sapiens, UniProt Q93009, C315A).
T1 construct: His-His-USP7 (aa208-560, |C315A|); His-His (N)
Nature of the experiment: Evaluation of the inhibition of USP7 by the Fluorescence Intensity (FLINT) readings. The experiment is classed as biochemical. The conditions noted are these: 0.25 nM His-His-USP7, compound incubated 60 minutes at 30° C., 500 nM Ubiquitin-Rhodamine-110 substrate; 50% reduction in kinetic rate. The procedure, abridged: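 IC50 reflects 50% reduction in kinetic rate of rhodamine-110 release (Ex485/Em535, reads every 3 min over 21 min), normalised to DMSO and no-enzyme controls, from an 11-point 4-parameter fit. Substrate is 500 nM Ub-Rh110, added after 60 min, 30 °C preincubation of compound with 0.25 nM USP7 aa208–560 C315A. Buffer is Bicine pH 8.0 with 10% DMSO.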

For experiment [2], the system named is Z138 mantle cell lymphoma tumour cell lines. Description: In vitro cytotoxicity, MTT assay. Format: cell-based. Particulars: Z138 cells exposed to the test compounds for 96 hours, cell viability vs DMSO treated cells. Here is the method:
The cytotoxicity studies were evaluated by MTT [3-(4,5-dimethylthiazol-2-yl)-2,5-diphenyltetrazolium bromide] assay and carried out on Z138 mantle cell lymphoma tumour cell lines. The cells are distributed onto microplates and exposed to the test compounds for 96 hours. MTT is then added for 4 hours and converted by NAD(P)H-dependent cellular oxidoreductase enzymes in formazan, which has a purple color. The viable cell number is proportional to the production of formuan salts and cell viability can be quantified by the absorbance of the solution at 540 nm with a speetrophotometer (Carmichael et al., Cancer Res. 1987, 47, 936-942).

IC50 data for 19 compounds are collected here from US20210221785A1, “AMINO-PYRIMIDONYL DERIVATIVES, A PROCESS FOR THEIR PREPARATION AND PHARMACEUTICAL COMPOSITIONS CONTAINING THEM” (LES LABORATOIRES SERVIER, priority 2018, published 2021).

As usually defined, the IC50 is the concentration at which inhibition is half-maximal.

T1 sequence (Q93009 208-560 C315A): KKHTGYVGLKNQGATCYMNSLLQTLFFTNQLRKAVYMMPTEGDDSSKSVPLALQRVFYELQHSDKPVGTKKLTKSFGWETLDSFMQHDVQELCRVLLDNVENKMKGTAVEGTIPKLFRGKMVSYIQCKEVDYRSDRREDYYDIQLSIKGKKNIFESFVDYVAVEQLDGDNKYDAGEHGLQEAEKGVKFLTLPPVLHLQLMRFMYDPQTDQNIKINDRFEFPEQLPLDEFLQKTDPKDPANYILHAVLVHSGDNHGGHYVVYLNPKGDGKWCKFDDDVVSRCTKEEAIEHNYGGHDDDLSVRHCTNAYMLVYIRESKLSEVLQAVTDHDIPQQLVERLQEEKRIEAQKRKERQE

As for `Nc1c(Oc2ccc(F)cc2)ncn(CC2(O)CCN(C(=O)[C@@H]3CC[C@@](F)(C#Cc4cncnc4)C[C@H]3c3ccccc3)CC2)c1=O` [Example 140, 5-amino-3-({1-[(1R,2R,4S)-4-fluoro-2-phenyl-4-[2-(pyrimidin-5-yl)ethynyl]cyclohexanecarbonyl]-4-hydroxypiperidin-4-yl}methyl)-6-(4-fluorophenoxy)-3,4-dihydropyrimidin-1-one], the IC50 in experiment [1] was 69.1 nM; in experiment [2] (Homo sapiens, Z-138, 96 h) it was 0.0498 µM.
For `Nc1c(Oc2ccc(F)cc2)ncn(CC2(O)CCN(C(=O)[C@@H]3CC[C@](F)(C#Cc4ccccn4)C[C@H]3c3ccccc3)CC2)c1=O` [Example 132, 5-amino-3-[(1-{[(1R,2R4R)-4-fluoro-2-phenyl-4-[2-(pyridin-2-yl)ethynyl]cyclohexyl]carbonyl}-4-hydroxypiperidin-4-yl)methyl]-6-(4-fluorophenoxy)pyrimidin-4-one], in that order: 3.29 nM and 0.00214 µM.
`NC(=O)CCc1ccc(Oc2ncn(CC3(O)CCN(C(=O)[C@@H]4CCC(F)(F)C[C@H]4c4ccccc4)CC3)c(=O)c2N)cc1` [Example 67, 3-(4-{[5-amino-1-({1-[(1R,2R)-4,4-difluoro-2-phenylcyclohexane-1-carbonyl]-4-hydroxypiperidin-4-yl}methyl)-6-oxo-1,6-dihydropyrimidin-4-yl]oxy}phenyl)propanamide]: the IC50 in experiment [1] worked out at 75 nM; in experiment [2] (Homo sapiens, Z-138, 96 h), 0.668 µM.
Consider `CO[C@]1(C#Cc2ncc(C)cn2)CC[C@@H](C(=O)N2CC[C@](O)(Cn3cnc(Oc4ccc(F)cc4)c(N)c3=O)C(F)(F)C2)[C@H](c2ccccc2)C1` [Example 174, 5-amino-3-{[(4S)-3,3-difluoro-4-hydroxy-1-[(1R,2R,4R)-4-methoxy-4-[2-(5-methylpyrimidin-2-yl)ethynyl]-2-phenylcyclohexanecarbonyl]piperidin-4-yl]methyl}-6-(4-fluorophenoxy)-3,4-dihydropyrimidin-4-one], for which the IC50 in experiment [1] amounted to 67.7 nM; in experiment [2] (Homo sapiens, Z-138, 96 h) it was 0.0174 µM.
For `CCC(N)c1ccc(Oc2ncn(CC3(O)CCN(C(=O)[C@@H]4CCC(F)(F)C[C@H]4c4ccccc4)CC3)c(=O)c2N)cc1` (stereo partly drawn) [Example 56, 5-amino-6-[4-(1-aminopropyl)phenoxy]-3-({1-[(1R,2R)-4,4-difluoro-2-phenylcyclohexane-1-carbonyl]-4-hydroxypiperidin-4-yl}methyl)pyrimidin-4(3H)-one], in that order: 15 nM and 0.539 µM.
For the compound `Nc1c(Oc2ccc(F)cc2)ncn(CC2(O)CCN(C(=O)[C@@H]3CC[C@](F)(C#Cc4cc(F)ccn4)C[C@H]3c3ccccc3)CC2)c1=O` [Example 157, 5-amino-3-({1-[(1R,2R,4R)-4-fluoro-4-[2-(4-fluoropyridin-2-yl)ethynyl]-2-phenylcyclohexanecarbonyl]-4-hydroxypiperidin-4-yl}methyl)-6-(4-fluorophenoxy)-3,4-dihydropyrimidin-4-one], the IC50 came to 6.77 nM in experiment [1] and 0.00716 µM in experiment [2] (Homo sapiens, Z-138, 96 h).
As for `CO[C@]1(C#Cc2nccc(C)n2)CC[C@@H](C(=O)N2CC[C@](O)(Cn3cnc(Oc4ccc(F)cc4)c(N)c3=O)C(F)(F)C2)[C@H](c2ccccc2)C1` [Example 176, 5-amino-3-{[(4S)-3,3-difluoro-4-hydroxy-1-[(1R,2R,4R)-4-methoxy-4-[2-(4-methylpyrimidin-2-yl)ethynyl]-2-phenylcyclohexanecarbonyl]piperidin-4-yl]methyl}-6-(4-fluorophenoxy)-3,4-dihydropyrimidin-4-one], the 50% inhibitory concentration (IC50) in experiment [1] is 77.2 nM; in experiment [2] (Homo sapiens, Z-138, 96 h) it was 0.037 µM.
As for `CC(N)c1ccc(Oc2ncn(CC3(O)CCN(C(=O)[C@@H]4CCC(F)(F)C[C@H]4c4ccccc4)CC3)c(=O)c2N)cc1` (single isomer, unassigned; diastereoisomer 2) [Example 55], the results for the IC50 in experiment [1] and in experiment [2] were 8.69 nM and 0.264 µM, respectively.
In the case of `Nc1c(Oc2ccc(F)cc2)ncn(CC2(O)CCN(C(=O)[C@@H]3CC[C@@](O)(Cc4ccccc4)C[C@H]3c3ccccc3)CC2)c1=O` (relative stereo) [Example 95, rel-5-amino-3-({1-[(1R,2R,4S)-4-benzyl-4-hydroxy-2-phenyl-cyclohexanecarbonyl]-4-hydroxypiperidin-4-yl}methyl)-6-(4-fluorophenoxy)-3,4-dihydropyrimidin-4-one], the IC50 stood at 172 nM in experiment [1] and 0.253 µM in experiment [2] (Homo sapiens, Z-138, 96 h).
The matching figures for `COc1cc(Oc2ncn(CC3(O)CCN(C(=O)[C@@H]4CCC(F)(F)C[C@H]4c4ccccc4)CC3)c(=O)c2N)ccc1F` [Example 16, 5-amino-3-({1-[(1R,2R)-4,4-difluoro-2-phenylcyclohexane-1-carbonyl]-4-hydroxypiperidin-4-yl}methyl)-6-(4-fluoro-3-methoxyphenoxy)pyrimidin-4(3H)-one]: 51.6 nM and 0.0424 µM.
Regarding `Cn1ccnc1C#C[C@]1(F)CC[C@@H](C(=O)N2CCC(O)(Cn3cnc(Oc4ccc(F)cc4)c(N)c3=O)CC2)[C@H](c2ccccc2)C1` [Example 152], the IC50 in experiment [1] amounted to 30.3 nM; in experiment [2] (Homo sapiens, Z-138, 96 h) it was 0.268 µM.
As for `Cn1ccnc1C#C[C@@]1(F)CC[C@@H](C(=O)N2CCC(O)(Cn3cnc(Oc4ccc(F)cc4)c(N)c3=O)CC2)[C@H](c2ccccc2)C1` [Example 149, 5-amino-3-[(1-{[(1R,2R,4R)-4-fluoro-4-[2-(1-methylimidazol-2-yl)ethynyl]-2-phenylcyclohexyl]carbonyl}-4-hydroxypiperidin-4-yl)methyl]-6-(4-fluorophenoxy)pyrimidin-4-one], the IC50 in experiment [1] is 8.55 nM; in experiment [2] (Homo sapiens, Z-138, 96 h) it was 0.259 µM.
The matching figures for `COc1nccnc1C#C[C@@]1(F)CC[C@@H](C(=O)N2CCC(O)(Cn3cnc(Oc4ccc(F)cc4)c(N)c3=O)CC2)[C@H](c2ccccc2)C1` [Example 154, 5-amino-3-({1-[(1R,2R,4R)-4-fluoro-4-[2-(3-methoxypyrazin-2-yl)ethynyl]-2-phenylcyclohexanecarbonyl]-4-hydroxypiperidin-4-yl}methyl)-6-(4-fluorophenoxy)-3,4-dihydropyrimidin-4-one]: 24.7 nM and 0.016 µM.
For `Nc1c(Oc2ccc3cn[nH]c3c2)ncn(CC2(O)CCN(C(=O)[C@@H]3CCC(F)(F)C[C@H]3c3ccccc3)CC2)c1=O` [Example 35, 5-amino-3-({1-[(1R,2R)-4,4-difluoro-2-phenylcyclohexane-1-carbonyl]-4-hydroypiperidin-4-yl}methyl)-6-[(1H-indazol-6-yl)oxy]pyrimidin-4(3H)-one], in that order: 34.2 nM and 0.081 µM.
For `Nc1c(Oc2ccc(F)cc2)ncn(CC2(O)CCN(C(=O)[C@@H]3CC[C@](F)(C#Cc4nccnc4Cl)C[C@H]3c3ccccc3)CC2)c1=O` [Example 153, 5-amino-3-({1-[(1R,2R,4R)-4-[2-(3-chloropyrazin-2-yl)ethynyl]-4-fluoro-2-phenylcyclohexanecarbonyl]-4-hydroxypiperidin-4-yl}methyl)-6-(4-fluorophenoxy)-3,4-dihydropyrimidin-4-one], the IC50 in experiment [1] was 37.1 nM; in experiment [2] (Homo sapiens, Z-138, 96 h), 0.0175 µM.
For `COc1ccc(Oc2ncn(CC3(O)CCN(C(=O)[C@@H]4CCC(F)(F)C[C@H]4c4ccccc4)CC3)c(=O)c2N)cc1` [Example 3, 5-amino-3-({1-[(1R,2R)-4,4-difluoro-2-phenylcyclohexane-1-carbonyl]-4-hydroxypiperidin-4-yl}methyl)-6-(4-methoxyphenoxy)pyrimidin-4(3H)-one], in that order: 80.2 nM and 0.0595 µM.
For `Nc1c(Oc2ccc(F)cc2)ncn(C[C@@]2(O)CCN(C(=O)[C@@H]3CC[C@](F)(C#Cc4cccnn4)C[C@H]3c3ccccc3)CC2(F)F)c1=O` [Example 168, 5-amino-3-{[(4S)-3,3-difluoro-1-{[(1R,2R,4R)-4-fluoro-2-phenyl-4-[2-(pyridazin-3-yl)ethynyl]cyclohexyl]carbonyl}-4-hydroxypiperidin-4-yl]methyl}-6-(4-fluorophenoxy)pyrimidin-4-one], in that order: 3.48 nM and 0.00157 µM.
For `Nc1c(Oc2ccc(F)cc2)ncn(CC2(O)CCN(C(=O)[C@@H]3CCC(F)(F)C[C@H]3c3ccccc3)CC2(F)F)c1=O` (stereo partly drawn) [Example 45, 5-amino-3-({1-[(1R,2R)-4,4-difluoro-2-phenylcyclohexane-1-carbonyl]-3,3-difluoro-4-hydroxypiperidin-4-yl}methyl)-6-(4-fluorophenoxy)pyrimidin-4(3H)-one], in that order: 57 nM and 0.115 µM.
For `C#C[C@]1(O)CC[C@@H](C(=O)N2CCC(O)(Cn3cnc(Oc4ccc(F)cc4)c(N)c3=O)CC2)[C@H](c2ccccc2)C1` (relative stereo) [Example 92, rel-5-amino-3-[(1-{[(1R,2R,4S)-4-ethynyl-4-hydroxy-2-phenyl-cyclohexyl]carbonyl}-4-hydroxypiperidin-4-yl)methyl]-6-(4-fluorophenoxy)pyrimidin-4-one], the IC50 in experiment [1] turned out to be 230 nM; in experiment [2] (Homo sapiens, Z-138, 96 h), 0.189 µM.
